Values quoted from earlier work in patent publication US5627202A, “Inhibitors of farnesyl-protein transferase” (Merck & Co., Inc., priority 1996, dated 1997).

Tested on: farnesyl-protein transferase
Conditions: via HMG-CoA reductase inhibition

SMILES	Indirect inhibition of farnesyl-protein transferase in vivo
CC[C@H](C)C(=O)O[C@H]1CCC=C2C=C[C@H](C)[C@H](CC[C@@H]3C[C@@H](O)CC(=O)O3)[C@H]21 [compactin]	Indirect inhibition of farnesyl-protein transferase in vivo
CC[C@H](C)C(=O)O[C@H]1C[C@@H](C)C=C2C=C[C@H](C)[C@H](CC[C@@H]3C[C@@H](O)CC(=O)O3)[C@H]21 [lovastatin]	Indirect inhibition of farnesyl-protein transferase in vivo
